In patent US11524938B2, “Aromatic sulfonamide derivatives” (Bayer Pharma Aktiengesellschaft, priority 2016, dated 2022):

Target: T1, human P2X4 (Homo sapiens, UniProt Q99571)
T1 sequence (Q99571 1-388): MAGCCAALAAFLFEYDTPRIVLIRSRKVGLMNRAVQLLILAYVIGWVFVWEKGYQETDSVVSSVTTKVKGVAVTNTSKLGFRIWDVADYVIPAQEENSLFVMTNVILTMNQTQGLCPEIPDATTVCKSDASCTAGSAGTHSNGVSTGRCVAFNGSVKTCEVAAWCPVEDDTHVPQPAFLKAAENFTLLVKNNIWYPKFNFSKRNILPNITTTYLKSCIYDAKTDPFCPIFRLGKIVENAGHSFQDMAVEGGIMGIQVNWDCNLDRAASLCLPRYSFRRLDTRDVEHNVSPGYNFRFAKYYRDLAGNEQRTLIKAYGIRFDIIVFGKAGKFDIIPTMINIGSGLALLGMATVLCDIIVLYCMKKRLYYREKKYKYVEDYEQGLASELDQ
Experiment: Human P2X4 HEK Cell FLIPR Assay
Assay type: cell-based
Details: agonist Bz-ATP at EC80; for Emax: HEK293, HEK293 cells, percentage of maximal inhibition, read-out: Human P2X4 HEK Cells (FLIPR Assay) avg Efficacy [%]; for IC50: HEK293 cells, individual values listed where some fall outside detection range
Method in brief: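 HEK293 cells stably expressing human P2X4, Fluo8-AM loaded 30 min at 37° C, then compound 30 min at room temperature (0.5% DMSO, pH 7.4 buffer with 1.8 mM CaCl2). Bz-ATP at its daily-determined EC80 added; calcium fluorescence read over 120 sec; IC50 from peak RFU normalized to agonist control, triplicates.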

| SMILES | Emax | IC50 |
| --- | --- | --- |
| NS(=O)(=O)c1cc(NC(=O)Cc2ccccc2Cl)ccc1-c1cnc(OCC(F)(F)F)nc1 [Example 284, 2-(2-Chlorophenyl)-N-{3-sulfamoyl-4-[2-(2,2,2-trifluoroethoxy)pyrimidin-5-yl]phenyl}-acetamide] | 94% | 54 nM |
| COc1ncc(-c2ccc(NC(=O)Cc3ccccc3Cl)cc2S(N)(=O)=O)cn1 [Example 285, 2-(2-Chlorophenyl)-N-[4-(2-methoxypyrimidin-5-yl)-3-sulfamoylphenyl]acetamide] | 97% | 246 nM |
| CC(C)OCCn1cc(-c2ccc(NC(=O)Cc3ccccc3Cl)cc2S(N)(=O)=O)cn1 [Example 286, 2-(2-Chlorophenyl)-N-(4-{1-[2-(propan-2-yloxy)ethyl]-1H-pyrazol-4-yl}-3-sulfamoylphenyl)acetamide] | 87% | 6 nM |
| CC(C)(O)CCn1cc(-c2ccc(NC(=O)Cc3ccccc3Cl)cc2S(N)(=O)=O)cn1 [Example 287, 2-(2-Chlorophenyl)-N-{4-[1-(3-hydroxy-3-methylbutyl)-1H-pyrazol-4-yl]-3-sulfamoyl-phenyl}acetamide] | 78% | 31 nM |
| Cn1nc(-c2ccc(NC(=O)Cc3ccccc3Cl)cc2S(N)(=O)=O)cc1C(C)(C)O [Example 288, 2-(2-Chlorophenyl)-N-{4-[5-(2-hydroxypropan-2-yl)-1-methyl-1H-pyrazol-3-yl]-3-sulfamoylphenyl}acetamide] | 68% | 275 nM |
| NS(=O)(=O)c1cc(NC(=O)Cc2ccccc2Cl)ccc1-c1cncc(OC(F)F)c1 [Example 289, 2-(2-Chlorophenyl)-N-{4-[5-(difluoromethoxy)pyridin-3-yl]-3-sulfamoylphenyl}acetamide] | 89% | 6 nM |
| COc1cnc(Cl)c(-c2ccc(NC(=O)Cc3ccccc3Cl)cc2S(N)(=O)=O)c1 [Example 290, N-[4-(2-Chloro-5-methoxypyridin-3-yl)-3-sulfamoylphenyl]-2-(2-chlorophenyl)acetamide] | 81% | 36 nM |
| NS(=O)(=O)c1cc(NC(=O)Cc2ccccc2Cl)ccc1-c1cnn(CCO)c1 [Example 291, 2-(2-Chlorophenyl)-N-{4-[1-(2-hydroxyethyl)-1H-pyrazol-4-yl]-3-sulfamoylphenyl}acetamide] | 95% | 100 nM |
| CC(C)(C)c1cc(-c2ccc(NC(=O)Cc3ccccc3Cl)cc2S(N)(=O)=O)n[nH]1 [Example 292, N-[4-(5-tert-Butyl-1H-pyrazol-3-yl)-3-sulfamoylphenyl]-2-(2-chlorophenyl)acetamide] | 87% | 58 nM |
| NS(=O)(=O)c1cc(NC(=O)Cc2ccccc2Cl)ccc1-c1cnn(Cc2ccccc2)c1 [Example 293, N-[4-(1-Benzyl-1H-pyrazol-4-yl)-3-sulfamoylphenyl]-2-(2-chlorophenyl)acetamide] | 75% | 76 nM |
| Cc1cc(-c2ccc(NC(=O)Cc3ccccc3Cl)cc2S(N)(=O)=O)cnn1 [Example 294, 2-(2-Chlorophenyl)-N-[4-(6-methylpyridazin-4-yl)-3-sulfamoylphenyl]acetamide] | 75% | 174 nM |
| NS(=O)(=O)c1cc(NC(=O)Cc2ccccc2Cl)ccc1-c1cccc(C(F)(F)F)n1 [Example 295, 2-(2-Chlorophenyl)-N-{3-sulfamoyl-4-[6-(trifluoromethyl)pyridin-2-yl]phenyl}acetamide] | 9% | > 25000 nM |
| NS(=O)(=O)c1cc(NC(=O)Cc2ccccc2F)ccc1-c1cnn(C(F)F)c1 [Example 296, N-{4-[1-(Difluoromethyl)-1H-pyrazol-4-yl]-3-sulfamoylphenyl}-2-(2-fluorophenyl)acetamide] | 87% | 136 nM |
| NS(=O)(=O)c1cc(NC(=O)Cc2ccccc2Cl)cnc1-c1cnn(C(F)F)c1 [Example 297, 2-(2-Chlorophenyl)-N-{6-[1-(difluoromethyl)-1H-pyrazol-4-yl]-5-sulfamoylpyridin-3-yl}acetamide] | 87% | 32 nM |
| Cc1cc(-c2ccc(NC(=O)Cc3ccccc3Cl)cc2S(N)(=O)=O)cnc1Cl [Example 298, N-[4-(6-Chloro-5-methylpyridin-3-yl)-3-sulfamoylphenyl]-2-(2-chlorophenyl)acetamide] | 104% | 108 nM |
| NS(=O)(=O)c1cc(NC(=O)Cc2ccccc2Cl)ccc1-c1cnc(NC2CC2)nc1 [Example 299, 2-(2-Chlorophenyl)-N-{4-[2-(cyclopropylamino)pyrimidin-5-yl]-3-sulfamoylphenyl}acetamide] | 88% | 203 nM |

| SMILES | Emax | IC50 |
| --- | --- | --- |
| NS(=O)(=O)c1cc(NC(=O)Cc2ccccc2Cl)ccc1-c1cnn(C2CCOC2)c1 (stereo not shown) [Example 300, 2-(2-Chlorophenyl)-N-{3-sulfamoyl-4-[1-(tetrahydrofuran-3-yl)-1H-pyrazol-4-yl]phenyl}acetamide] | 100% | 27 nM |
| CNc1ncc(-c2ccc(NC(=O)Cc3ccccc3Cl)cc2S(N)(=O)=O)cn1 [Example 301, 2-(2-Chlorophenyl)-N-{4-[2-(methylamino)pyrimidin-5-yl]-3-sulfamoylphenyl}acetamide] | 74% | 10 nM |
| Cn1cc(-c2ncc(NC(=O)Cc3ccccc3Cl)cc2S(N)(=O)=O)cn1 [Example 302, 2-(2-Chlorophenyl)-N-[6-(1-methyl-1H-pyrazol-4-yl)-5-sulfamoylpyridin-3-yl]acetamide] | 97% | 56 nM |
| NS(=O)(=O)c1cc(NC(=O)Cc2ccccc2Cl)ccc1-c1cnn(CC(F)F)c1 [Example 303, 2-(2-Chlorophenyl)-N-{4-[1-(2,2-difluoroethyl)-1H-pyrazol-4-yl]-3-sulfamoylphenyl}acetamide] | 91% | 97 nM |
| NS(=O)(=O)c1cc(NC(=O)Cc2ccccc2C(F)(F)F)ccc1-c1cncc(C(F)(F)F)c1 [Example 304, N-{3-Sulfamoyl-4-[5-(trifluoromethyl)pyridin-3-yl]phenyl}-2-[2-(trifluoromethyl)phenyl]acetamide] | 65% | 73 nM |
| NS(=O)(=O)c1cc(NC(=O)Cc2ccccc2Cl)cnc1-c1cncc(C(F)(F)F)c1 [Example 305, 2-(2-Chlorophenyl)-N-[3-sulfamoyl-5′-(trifluoromethyl)-2,3′-bipyridin-5-yl]acetamide] | 49% | 21 nM |
| NS(=O)(=O)c1cc(NC(=O)Cc2ccccc2Cl)ccc1-c1cnc(C(F)(F)F)nc1 [Example 306, 2-(2-Chlorophenyl)-N-{3-sulfamoyl-4-[2-(trifluoromethyl)pyrimidin-5-yl]phenyl}acetamide] | 80% | 278 nM |
| NS(=O)(=O)c1cc(NC(=O)Cc2ccccc2Cl)ccc1-c1cncc(OC(F)(F)F)c1 [Example 307, 2-(2-Chlorophenyl)-N-{3-sulfamoyl-4-[5-(trifluoromethoxy)pyridin-3-yl]phenyl}acetamide] | 62% | 115 nM |
| NS(=O)(=O)c1cc(NC(=O)Cc2ccccc2Cl)ccc1-c1cnc(C2CC2)nc1 [Example 308, 2-(2-Chlorophenyl)-N-[4-(2-cyclopropylpyrimidin-5-yl)-3-sulfamoylphenyl]acetamide] | 91% | 64 nM |
| CCOc1ncc(-c2ccc(NC(=O)Cc3ccccc3Cl)cc2S(N)(=O)=O)cn1 [Example 309, 2-(2-Chlorophenyl)-N-[4-(2-ethoxypyrimidin-5-yl)-3-sulfamoylphenyl]acetamide] | 93% | 317 nM |
| CC(C)Nc1ncc(-c2ccc(NC(=O)Cc3ccccc3Cl)cc2S(N)(=O)=O)cn1 [Example 310, 2-(2-Chlorophenyl)-N-{4-[2-(propan-2-ylamino)pyrimidin-5-yl]-3-sulfamoylphenyl}acetamide] | 59% | 86 nM |
| CC(C)Oc1ncc(-c2ccc(NC(=O)Cc3ccccc3Cl)cc2S(N)(=O)=O)cn1 [Example 311, 2-(2-Chlorophenyl)-N-{4-[2-(propan-2-yloxy)pyrimidin-5-yl]-3-sulfamoylphenyl}acetamide] | 104% | 285 nM |
| CCNc1ncc(-c2ccc(NC(=O)Cc3ccccc3Cl)cc2S(N)(=O)=O)cn1 [Example 312, 2-(2-Chlorophenyl)-N-{4-[2-(ethylamino)pyrimidin-5-yl]-3-sulfamoylphenyl}-acetamide] | 69% | 37 nM |
| Cc1ncc(-c2ccc(NC(=O)Cc3ccccc3Cl)cc2S(N)(=O)=O)cn1 [Example 313, 2-(2-Chlorophenyl)-N-[4-(2-methylpyrimidin-5-yl)-3-sulfamoylphenyl]acetamide] | 82% | 713 nM |
| CCCNc1ncc(-c2ccc(NC(=O)Cc3ccccc3Cl)cc2S(N)(=O)=O)cn1 [Example 314, 2-(2-Chlorophenyl)-N-{4-[2-(propylamino)pyrimidin-5-yl]-3-sulfamoylphenyl}-acetamide] | 83% | 27 nM |
| NS(=O)(=O)c1cc(NC(=O)Cc2ccccc2Cl)ccc1-c1cnc(NCC(F)(F)F)nc1 [Example 315, 2-(2-Chlorophenyl)-N-(3-sulfamoyl-4-{2-[(2,2,2-trifluoroethyl)amino]pyrimidin-5-yl}phenyl)acetamide] | 81% | 34 nM |
